The record followed here is patent US20050197350A1, “Novel quinoline, tetrahydroquinazoline, and pyrimidine derivatives and methods of treatment related to the use thereof” (TAISHO PHARMACEUTICAL CO., LTD., priority 2003, published 2005).

The assay concerns MCH receptors. Nature of the assay: MCH receptor activity class (method not given).
Setting [1] is: activity class 1-3: percent of control at 10^-7 M or IC50.
The mark [2] stands for this setting: class by percent of control at 10^-7 M or IC50.
Setting [3] is: class 1-3 by percent of control at 10^-7 M or IC50.
Setting [4] is: MCH receptor, class by percent of control at 10^-7 M or IC50.
Setting [5] is: class by percent of control at 10^−7 M or IC50.
[6] abbreviates: activity class per percent of control at 10^-7 M or IC50.

As to `CN(C)c1cc(N[C@H]2CC[C@@H](NC(=O)OCC(Cl)(Cl)Cl)CC2)nc2ccccc12` [compound 1558], under setting [1], the class was 3 (Class 3 The value of percent of control at 10^−7 M was more than 60% or the value of IC50 was more than 200 nM.).
`CN(C)c1cc(N[C@H]2CC[C@@H](NC(=O)Cc3c[nH]c4ccccc34)CC2)nc2ccccc12` [compound 711, N-(cis-4-{[4-(dimethylamino)quinolin-2-yl]amino}cyclohexyl)-2-(1H-indol-3-yl)acetamide]: the class under setting [2] was 1 (Class 1: The value of percent of control at 10^−7 M was less than 40% or the value of IC50 was less than 50 nM.).
Take `Cc1c(C)c(C)c(CNC2CCC(Nc3nccc(N(C)C)n3)CC2)c(C)c1C` (stereo not shown) [compound 1519]: the class under setting [1] is 3 (Class 3 The value of percent of control at 10^−7 M was more than 60% or the value of IC50 was more than 200 nM.).
As to `CCC(C(=O)NC[C@H]1CC[C@@H](Nc2nccc(N(C)C)n2)CC1)c1ccccc1` (relative stereo) [compound 411, N-[(cis-4-{[4-(dimethylamino)pyrimidin-2-yl]amino}cyclohexyl)methyl]-2-phenylbutanamide], the class under setting [2] is 1 (Class 1: The value of percent of control at 10^−7 M was less than 40% or the value of IC50 was less than 50 nM.).
Consider `CN(C)c1ccnc(N[C@H]2CC[C@@H](CNC(=O)Cc3ccc(F)cc3)CC2)n1` [compound 413], for which the class under setting [3] is reported as 3 (Class 3 The value of percent of control at 10^−7 M was more than 60% or the value of IC50 was more than 200 nM.).
For the molecule `COc1ccc(CCCCNC[C@H]2CC[C@@H](Nc3nc4c(c(N(C)C)n3)CCCC4)CC2)cc1` [compound 1499], under setting [2], the class is reported as 3 (Class 3 The value of percent of control at 10^−7 M was more than 60% or the value of IC50 was more than 200 nM.).
Same read-out and setting: next, `CC(C)c1cc(Br)c(NC(=O)N[C@H]2CC[C@@H](Nc3nc4c(c(N(C)C)n3)CCCC4)CC2)c(Br)c1` [compound 1732]: 3 (Class 3 The value of percent of control at 10^−7 M was more than 60% or the value of IC50 was more than 200 nM.).
Same read-out and setting: next, `Cc1cccc(C(=O)NC[C@H]2CC[C@@H](Nc3nccc(N(C)C)n3)CC2)c1` [compound 395]: 3 (Class 3 The value of percent of control at 10^−7 M was more than 60% or the value of IC50 was more than 200 nM.).
`CN(C)c1cc(N[C@H]2CC[C@@H](CNC(=O)c3cc(C(C)(C)C)nn3Cc3ccccc3)CC2)nc2ccccc12` [compound 212]: the class under setting [4] is recorded as 3 (Class 3 The value of percent of control at 10^−7 M was more than 60% or the value of IC50 was more than 200 nM.).
For `C[C@H](C(=O)N[C@H]1CC[C@@H](Nc2nccc(N(C)C)n2)CC1)c1ccc(-c2ccccc2)c(F)c1` [compound 880], the class under setting [2] is given as 3 (Class 3 The value of percent of control at 10^−7 M was more than 60% or the value of IC50 was more than 200 nM.).
With `Cc1cc(Cl)ccc1NC(=S)N[C@H]1CC[C@@H](Nc2cc(N(C)C)c3ccccc3n2)CC1` [compound 2286], the class (MCH receptor activity class 1-3 (percent of control at 10^-7 M or IC50)) was 3 (Class 3 The value of percent of control at 10^−7 M was more than 60% or the value of IC50 was more than 200 nM.).
`CN(C)c1nc(N[C@H]2CC[C@@H](NC(=S)NCc3ccccc3Cl)CC2)nc2c1CCCC2` [compound 1759]: the class under setting [2] is given as 3 (Class 3 The value of percent of control at 10^−7 M was more than 60% or the value of IC50 was more than 200 nM.).
In the case of `CCOC(=O)NC[C@H]1CC[C@@H](Nc2nccc(N(C)C)n2)CC1` [compound 1647], under setting [1], the class is 3 (Class 3 The value of percent of control at 10^−7 M was more than 60% or the value of IC50 was more than 200 nM.).
For the molecule `CN(C)c1nc(N[C@H]2CC[C@@H](NC(=O)OCC(C)(C)C)CC2)nc2c1CCCC2` [compound 1580], the class under setting [1] is 3 (Class 3 The value of percent of control at 10^−7 M was more than 60% or the value of IC50 was more than 200 nM.).
The same measure, in the same setting: next, `COc1ccc(Cl)cc1CNC[C@H]1CC[C@@H](Nc2nccc(N(C)C)n2)CC1` [compound 1535]: 3 (Class 3 The value of percent of control at 10^−7 M was more than 60% or the value of IC50 was more than 200 nM.).
For the molecule `Cc1ccccc1CNC[C@H]1CC[C@@H](Nc2nc3c(c(N(C)C)n2)CCCC3)CC1` [compound 1427], under setting [2], the class was 3 (Class 3 The value of percent of control at 10^−7 M was more than 60% or the value of IC50 was more than 200 nM.).
For `Cc1nc(N[C@H]2CC[C@@H](NC(=O)c3cc(C(F)(F)F)cc(C(F)(F)F)c3)CC2)nc(N(C)C)c1C` [compound 2841, N-(cis-4-{[4-(dimethylamino)-5,6-dimethylpyrimidin-2-yl]amino}cyclohexyl)-3,5-bis(trifluoromethyl)benzamide], the class under setting [5] is 1 (Class 1: The value of percent of control at 10^−7 M was less than 40% or the value of IC50 was less than 50 nM.).
As for `C[C@H](C(=O)N[C@H]1CC[C@@H](Nc2nc3c(c(N(C)C)n2)CCCC3)CC1)c1cccc(C(=O)c2ccccc2)c1` [compound 1014], the class under setting [6] is recorded as 3 (Class 3 The value of percent of control at 10^−7 M was more than 60% or the value of IC50 was more than 200 nM.).
For the molecule `CN(C)c1nc(N[C@H]2CC[C@@H](NC(=O)Nc3cc(Cl)c(Cl)cc3Cl)CC2)nc2c1CCCC2` [compound 1846], the class under setting [2] is listed as 2 (Class 2: The value of percent of control at 10^−7 M was from 40% to 60% or the value of IC′50 was from 50 nM to 200 nM.).
`CN(C)c1ccnc(N[C@H]2CC[C@@H](NC(=O)COc3ccc(Cl)cc3)CC2)n1` [compound 314]: the class under setting [2] is given as 1 (Class 1: The value of percent of control at 10^−7 M was less than 40% or the value of IC50 was less than 50 nM.).
In the case of `Cc1cnc(N[C@H]2CC[C@@H](NC(=O)c3ccc(C(C)(C)C)cc3)CC2)nc1N(C)C` [compound 2905], the class under setting [5] is given as 1 (Class 1: The value of percent of control at 10^−7 M was less than 40% or the value of IC50 was less than 50 nM.).
Consider `CN(C)c1ccnc(N[C@H]2CC[C@@H](NC(=O)Nc3c(Cl)cccc3C(F)(F)F)CC2)n1` [compound 2193], for which the class under setting [2] is 3 (Class 3 The value of percent of control at 10^−7 M was more than 60% or the value of IC50 was more than 200 nM.).
On the same count and under the same terms, next, `CN(C)c1ccc(CNC[C@H]2CC[C@@H](Nc3nc4c(c(N(C)C)n3)CCCC4)CC2)cc1` [compound 1393]: 3 (Class 3 The value of percent of control at 10^−7 M was more than 60% or the value of IC50 was more than 200 nM.).
As for `CN(C)c1ccnc(N[C@H]2CC[C@@H](CNC(=O)c3cccc4c3-c3ccccc3C4=O)CC2)n1` [compound 444, N-[(cis-4-{[4-(dimethylamino)pyrimidin-2-yl]amino}cyclohexyl)methyl]-9-oxo-9H-fluorene-4-carboxamide], the class under setting [3] is 2 (Class 2: The value of percent of control at 10^−7 M was from 40% to 60% or the value of IC′50 was from 50 nM to 200 nM.).
For `CN(C)c1nc(N[C@H]2CC[C@@H](NC(=O)C3CCc4ccccc4C3)CC2)nc2c1CCCC2` (relative stereo) [compound 1053], the class under setting [6] is reported as 3 (Class 3 The value of percent of control at 10^−7 M was more than 60% or the value of IC50 was more than 200 nM.).
Turning to `CN(C)c1nc(N[C@H]2CC[C@@H](NC(=O)NCc3ccccc3F)CC2)nc2c1CCCC2` [compound 1713], the class under setting [2] is reported as 2 (Class 2: The value of percent of control at 10^−7 M was from 40% to 60% or the value of IC′50 was from 50 nM to 200 nM.).
Take `CN(C)c1cc(N[C@H]2CC[C@@H](NC(=O)c3ccc(F)c(Cl)c3)CC2)nc2ccccc12` [compound 73, 3-chloro-N-(cis-4-{[4-(dimethylamino)quinolin-2-yl]amino}cyclohexyl)-4-fluorobenzamide]: the class under setting [4] is 1 (Class 1: The value of percent of control at 10^−7 M was less than 40% or the value of IC50 was less than 50 nM.).
Take `CN(C)c1ccnc(N[C@H]2CC[C@@H](CNCc3c[nH]c4ccccc34)CC2)n1` [compound 1245]: under setting [2], the class is listed as 3 (Class 3 The value of percent of control at 10^−7 M was more than 60% or the value of IC50 was more than 200 nM.).
Consider `Cc1cc(N(C)C)nc(NC[C@H]2CC[C@@H](NC(=O)c3ccc4c(c3)OC(F)(F)O4)CC2)n1` [compound 2750], for which, under setting [5], the class is on record as 3 (Class 3 The value of percent of control at 10^−7 M was more than 60% or the value of IC50 was more than 200 nM.).
As to `C=CCOC(=O)N[C@H]1CC[C@@H](Nc2cc(N(C)C)c3ccccc3n2)CC1` [compound 1550], the class under setting [1] is on record as 3 (Class 3 The value of percent of control at 10^−7 M was more than 60% or the value of IC50 was more than 200 nM.).
On to `CN(C)c1nc(N[C@H]2CC[C@@H](CNCc3cccc(Cl)c3)CC2)nc2c1CCCC2` [compound 1390], for which the class under setting [2] was 3 (Class 3 The value of percent of control at 10^−7 M was more than 60% or the value of IC50 was more than 200 nM.).
Same read-out and setting: next, `CN(C)c1ccnc(N[C@H]2CC[C@@H](CNC(=O)c3cccc(C(F)(F)F)c3F)CC2)n1` [compound 409]: 3 (Class 3 The value of percent of control at 10^−7 M was more than 60% or the value of IC50 was more than 200 nM.); `CN(C)c1ccnc(N[C@H]2CC[C@@H](CNC(=O)c3cc(Cl)cc(Cl)c3)CC2)n1` [compound 375]: 2 (Class 2: The value of percent of control at 10^−7 M was from 40% to 60% or the value of IC′50 was from 50 nM to 200 nM.); `COc1cc(CN[C@H]2CC[C@@H](Nc3nc4c(c(N(C)C)n3)CCCC4)CC2)ccc1O` [compound 1362]: 3 (Class 3 The value of percent of control at 10^−7 M was more than 60% or the value of IC50 was more than 200 nM.).
With `CN(C)c1nc(N[C@H]2CC[C@@H](NC(=S)NCCc3ccc(Cl)cc3)CC2)nc2c1CCCC2` [compound 1998], the class under setting [4] is reported as 3 (Class 3 The value of percent of control at 10^−7 M was more than 60% or the value of IC50 was more than 200 nM.).
Turning to `Cc1ccnc(SCC(=O)N[C@H]2CC[C@@H](Nc3nc4c(c(N(C)C)n3)CCCC4)CC2)n1` [compound 972], the class under setting [2] was 2 (Class 2: The value of percent of control at 10^−7 M was from 40% to 60% or the value of IC′50 was from 50 nM to 200 nM.).
In the case of `CN(C)c1ccnc(N[C@H]2CC[C@@H](NC(=O)c3ccccc3Sc3ccccc3C#N)CC2)n1` [compound 875], the class under setting [2] is recorded as 3 (Class 3 The value of percent of control at 10^−7 M was more than 60% or the value of IC50 was more than 200 nM.).
